# Data taken from patent publication US20200270225A1, “Chiral Diacylhydrazine Ligands for Modulating the Expression of Exogenous Genes via an Ecdysone Receptor Complex” (Intrexon Corporation, priority 2007, published 2020).
# How the values were obtained:
# [1] = system: IL-12 transgene in transduced AdDCs; test: In vitro IL-12 transgene induction by transduced AdDCs from healthy volunteers; type: cell-based, human; details: observed in 2 out of the 3 AdDC preparations
# Method: Immature DCs are harvested, counted and tested for viability. Approximately 6-7×10^7 DCs are transduced with the adenoviral vector at the optimal multiplicity of infection (the optimal MOI, between 500 and 1000, to be finalized) for the optimal viral adsorption time (between 2 h and 4 h, to be finalized). After transduction, the cells are washed repeatedly to remove any unadsorbed viral particles. Aliquots are set aside for sterility, endotoxin, mycoplasma, DC Phenotype and IL-12 transgene induction assays. The target dose of 5×10^7 cells is held at 4° C. in saline until release testing is complete.
# The in vitro testing of the IL-12 transgene induction by the transduced AdDCs takes a minimum of two days for the results to be available and therefore IL-12 production in response to (R)-2-ethyl-3-methoxy-benzoic acid N′-(1-tert-butyl-butyl)-N′-(3,5-dimethyl-benzoyl)-hydrazide will not be a release criterion for the intratumoral injection of the AdDCs. […] Therefore, the in vitro IL-12 induction results are used for analysis of the treatment outcome. As such, the transduced AdDCs are used for injection after viral transduction and washing. Any left-over untransduced and transduced DCs are cryopreserved for future analysis as necessary.
# [2] = system: murine IL-12 under the control of the RTS; test: In vivo induction of transgene IL-12 from Ad-RTS-mIL-12 transduced B16 tumor cells; parameters: species or system C57BL/6 mice; details: for IL-12 expression levels after ligand treatment discontinued: ligand discontinued for 3 days; for transgene IL-12 expression in tumor and serum, dose pattern: oral gavage 0, 3, 10, 30, 50 mg/kg daily for 3 days
# Method: The transgene tested in this example was murine IL-12 under the control of the RTS. Mouse melanoma cells (B16) were transduced with an adenoviral vector Ad-RTS-mIL-12 that carries the murine IL-12 transgene under the control of RTS. These cells were injected subcutaneously (s.c.) into the C57BL/6 mice (histocompatible with B16 cells) and the mice were treated with different doses of the R enantiomer and racemic 2-ethyl-3-methoxy-benzoic acid N′-(1-tert-butyl-butyl)-N′-(3,5-dimethyl-benzoyl)-hydrazide for three days. The control groups included the mice receiving untransduced B16 cells and the higher dose of ligand and another group receiving the transduced B116 cells and no ligand. […] Tumor extracts and serum were prepared and assayed for IL-12 by ELISA.
# The remaining mice were used for testing the transgene turn-off when the ligand administration is discontinued for an additional 72 hours.
# Materials and Methods: B16 cells were infected with Ad-RTS-mIL-12 (MOI=100) in vitro. After 48 h, 5×10^5 (B16, right flank) cells were injected s.c. into C57 BL/6 mice (10 mice/group). The R enantiomer and racemate ligands were dissolved in Labrasol by heating a 10 mg/mL mixture at 50° C. for 5 minutes. Both ligands were dissolved in Labrasol based on visual inspection. Activating ligands were provided via oral gavage at the following doses (0 mg/kg; 3 mg/kg; 10 mg/kg; 30 mg/kg and 50 mg/kg) daily for 3 days. Additional controls included B16-bearing mice receiving ligand only (50 mg/kg/day for 3 days and untreated tumor-bearing mice). Five mice/group were harvested for isolation of tumor lesions and peripheral blood. Tissue was homogenized in 1 ml total of phosphate-buffered saline. Lysate/serum was cryopreserved at −80° C. The alternate 5 mice/group were allowed to sit for an additional 72 h in the absence of further ligand administration. These latter 5 mice/group were harvested for isolation of tumor lesions and peripheral blood. Tissue was homogenized as above, and cryopreserved and lysate/serum was cryopreserved at −80° C. Specimens were thawed at 37° C. in water bath and analyzed for mIL-12p70 and also mIFN-γ, a corollary IL-12-dependent cytokine important for CTL trafficking into tumors, using specific ELISAs (BD-Pharmingen).
# Microsomal metabolism = type: in vitro ADME, human; details: 5 μM, 1.0 mg/mL microsomal protein, 1 mM NADPH, 60 minutes
# Method: The test compounds were prepared as 5 μM solutions in DMSO (concentration less than 0.25%), methanol, or acctonitrile. Mixed gender human liver microsomes were pooled from a ≥10 donors, and incubated with 1 mM NADPH. The test compound was incubated at 37° C. in buffer containing 1.0 mg/mL of microsomal protein with 1 mM NADPH. At 0 and 60 minutes, the mixture was sampled and monitored by LC/MS/MS for the peak area corresponding to the test compound, with the range of 10-100%. The assay was run in duplicate (N=2 separate incubations). The data reported in FIG. 15 is percent remaining of testosterone standard and percent remaining of the test compound.
# [3] = Blood serum levels after oral gavage in Labrasol; type: in vivo, C57BL/6N:Crl mice; details: 30 and 50 mg/kg/day, 9 and 12 days
# Method: Compounds in Labrasol were administered to C57BL/6N:Crl (wild-type) mice (Charles River Laboratories) by oral gavage, the intended route of administration in humans. Dosage was set at 3, 10, 30, or 50 mg/kg/day and 2.5 mL/kg/dose (FIG. 16). Doses were administered for 9 days (first 18 females/group) or 12 days (second 18 females/group) (FIG. 16). Blood was withdrawn at 9-day and 12-day time points. Concentrations were quantified by reverse-phase HPLC.
# For each concentration, the samples were prepared by adding Labrasol to solid R enantiomer or racemate in a beaker, sonicating to break up visible aggregates, and magnetic stirring until a uniform appearance was attained. The mixtures were transferred to a graduated cylinder and topped off to the requisite volume using a Labrasol rinse of the beaker. The contents of the cylinder were mixed by inversion and stirred magnetically until dosing.
# Mouse blood serum levels as a function of time were measured by quantitative HPLC. […] The initial particle size differences between racemate an R enantiomer may account for a portion of the serum level differences. Also, the greater intrinsic solubility of the R enantiomer over the racemate in Labrasol may account for a portion of the serum level differences. […]
# MDR1-MDCK cells = test: Blood brain barrier penetration potential using MDR1-MDCK cells; type: in vitro ADME
# Method: The test compounds were prepared as a 5 μM solution in HBSSg with a maximum DMSO concentration ≤1%. Confluent monolayers of MDR1-MDCK cells, 7 to 11 days old were prepared. The receiver well was prepared with 1% BSA in modified Hanks buffer (HBSSg), and the apical and basolateral sides were maintained at pH 7.4±0.2. Two monolayers were dosed in each direction (N=2): the apical side was dosed for (A→B) assessment and the basolateral side was dosed for (B→A) assessment. Test compound concentration was measured for both apical and basolateral sides at a time point of 120 minutes using a generic LC/MS/MS method with a minimum 4 point calibration curve. The reported values in FIG. 14: the percent recovery of the test compound from the Transwell® wells containing MDR1-MDCK cell monolayers; apparent permeability (Papp) in both directions; efflux ratio (Papp B→A)/(Papp A→B); and the blood-brain barrier penetration potential classification. […] Also, R enantiomer experiences less efflux. […] Higher blood-brain barrier penetration is a significant advantage for medical indications where central nervous system (CNS) penetration is required.
Compound,induced IL-12 expression level [1],IL-12 expression levels after ligand treatment discontinued [2],"IFN-γ levels in tumor and serum ([2]; mouse, in vivo)","transgene IL-12 expression in tumor and serum, dose pattern [2]","stability to metabolism in human liver microsomes, compared (Microsomal metabolism)",blood serum levels [3],blood-brain barrier penetration potential classification (MDR1-MDCK cells),"efflux, compared (MDR1-MDCK cells)","apparent permeability (Papp), compared (MDR1-MDCK cells; A→B and B→A, 5 μM, 120 minutes)"
"CCC[C@@H](N(NC(=O)c1cccc(OC)c1CC)C(=O)c1cc(C)cc(C)c1)C(C)(C)C [Example 1, (R)-3,5-Dimethyl-benzoic Acid N-(1-tert-butyl-butyl)-N′-(2-ethyl-3-methoxy-benzoyl)-hydrazide]",80 ng/million cells/24 h,dropped to similar proportions in all the treatment groups,clearly showed enhanced expression,dose-dependent pattern,slightly more stable,significantly higher blood serum levels,moderately penetrating through the blood-brain barrier,less efflux,more permeable than racemate in both A→B and B→A directions
"CCCC(N(NC(=O)c1cccc(OC)c1CC)C(=O)c1cc(C)cc(C)c1)C(C)(C)C (racemic) [rac-1, rac-2-ethyl-3-methoxy-benzoic acid N′-(1-tert-butyl-butyl)-N′-(3,5-dimethyl-benzoyl)-hydrazide]",–,dropped to similar proportions in all the treatment groups,–,dose-dependent pattern,–,substantially lower (<4-5 fold AUC),low,–,–
